Calls of active or inactive are those of the source.
Assays:
[1] = StAR promoter reporter inhibition counter-screen, dose response, counter-screen for LRH-1 inverse agonist project, cell-based, luminescence, luciferase reporter (AID 651969); type: functional
Steroidogenic factor 1 = Steroidogenic factor 1 (Homo sapiens, UniProt Q13285); test: Counterscreen for inverse agonists of the liver receptor homolog-1 (LRH-1; NR5A2): Luminescence-based cell-based high throughput dose response assay to identify inverse agonists of the Steroidogenic Factor 1 Nuclear Receptor (SF1; NR5A1).; type: functional
Steroidogenic factor 1, sequence (Q13285 whole entry): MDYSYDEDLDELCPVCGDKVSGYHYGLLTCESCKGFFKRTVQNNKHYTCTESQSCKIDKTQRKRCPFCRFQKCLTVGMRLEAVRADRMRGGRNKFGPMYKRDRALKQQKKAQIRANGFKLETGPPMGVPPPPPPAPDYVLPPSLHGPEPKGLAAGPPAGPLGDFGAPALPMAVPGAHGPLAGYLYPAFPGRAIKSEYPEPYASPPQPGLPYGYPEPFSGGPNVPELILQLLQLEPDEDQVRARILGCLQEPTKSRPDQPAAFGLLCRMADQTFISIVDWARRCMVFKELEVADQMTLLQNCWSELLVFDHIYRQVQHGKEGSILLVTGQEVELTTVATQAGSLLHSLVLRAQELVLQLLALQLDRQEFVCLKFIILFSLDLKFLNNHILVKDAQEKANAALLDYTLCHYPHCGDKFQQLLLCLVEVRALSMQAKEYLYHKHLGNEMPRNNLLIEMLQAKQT

[2] = biological target: Nuclear receptor subfamily 5 group A member 2 (Homo sapiens, UniProt O00482); type: functional, cell-based;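 also: HEK293T cells transfected with LRH-1 and a StAR promoter luciferase reporter; potency for inhibitors that lower LRH-1 driven reporter light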
Nuclear receptor subfamily 5 group A member 2, sequence (O00482 whole entry): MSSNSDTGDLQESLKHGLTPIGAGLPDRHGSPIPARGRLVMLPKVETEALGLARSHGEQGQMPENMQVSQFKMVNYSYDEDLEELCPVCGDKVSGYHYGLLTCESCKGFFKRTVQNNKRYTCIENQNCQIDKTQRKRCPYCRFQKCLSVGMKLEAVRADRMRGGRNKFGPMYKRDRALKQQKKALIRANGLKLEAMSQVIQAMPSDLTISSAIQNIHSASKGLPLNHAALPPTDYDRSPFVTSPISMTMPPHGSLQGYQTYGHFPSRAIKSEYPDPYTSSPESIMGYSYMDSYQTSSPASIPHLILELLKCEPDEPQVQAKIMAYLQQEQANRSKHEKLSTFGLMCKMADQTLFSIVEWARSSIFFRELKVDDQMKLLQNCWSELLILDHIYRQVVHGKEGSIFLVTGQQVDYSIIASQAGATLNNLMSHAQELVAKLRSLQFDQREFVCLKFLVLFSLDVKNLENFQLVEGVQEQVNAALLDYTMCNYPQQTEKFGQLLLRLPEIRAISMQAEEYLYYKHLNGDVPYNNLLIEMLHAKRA

HEK293 = test: inhibitors of LMP1-driven NF-kB reporter, dose response, cell-based, HEK293, luciferase, cherry-pick (AID 588343); type: functional; conditions: Homo sapiens
[3] = off-target signal loss in HeLa-CEM21 co-culture – HeLa F-luc CTL cells, cherry-picked, counter-screen for HIV-1 Env fusion inhibitor project, dose response (AID 652040); type: functional, cell-based;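 also: potency for signal decrease marking cytotoxic or nonspecific inhibition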
[4] = inhibitors of HIV Env-driven cell fusion, dose response, cherry-pick (AID 652057); type: functional, cell-based
[5] = ZM109 Env clade C HIV-1 fusion inhibitors, dose response, HeLa effector, CEM target cells, luciferase, cherry-pick (AID 652058); type: functional, cell-based
[6] = inhibitors of clade B AD8 Env fusion, dose response, cell-based, cherry-pick (AID 652062); type: functional;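 also: luciferase signal from cell-cell fusion driven by HIV-1 clade B AD8 Env; potency is for inhibitors of fusion seen as a drop in luminescence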
Aminopeptidase N = biological target: T1, Aminopeptidase N (Plasmodium falciparum FcB1/Columbia, UniProt O96935); test: P. falciparum M1AAP inhibitors, biochemical, fluorogenic H-Leu-NHMec substrate, 1536-well (AID 1445); design: species or system Plasmodium falciparum 3D7, 3D7
T1 sequence (O96935 whole entry): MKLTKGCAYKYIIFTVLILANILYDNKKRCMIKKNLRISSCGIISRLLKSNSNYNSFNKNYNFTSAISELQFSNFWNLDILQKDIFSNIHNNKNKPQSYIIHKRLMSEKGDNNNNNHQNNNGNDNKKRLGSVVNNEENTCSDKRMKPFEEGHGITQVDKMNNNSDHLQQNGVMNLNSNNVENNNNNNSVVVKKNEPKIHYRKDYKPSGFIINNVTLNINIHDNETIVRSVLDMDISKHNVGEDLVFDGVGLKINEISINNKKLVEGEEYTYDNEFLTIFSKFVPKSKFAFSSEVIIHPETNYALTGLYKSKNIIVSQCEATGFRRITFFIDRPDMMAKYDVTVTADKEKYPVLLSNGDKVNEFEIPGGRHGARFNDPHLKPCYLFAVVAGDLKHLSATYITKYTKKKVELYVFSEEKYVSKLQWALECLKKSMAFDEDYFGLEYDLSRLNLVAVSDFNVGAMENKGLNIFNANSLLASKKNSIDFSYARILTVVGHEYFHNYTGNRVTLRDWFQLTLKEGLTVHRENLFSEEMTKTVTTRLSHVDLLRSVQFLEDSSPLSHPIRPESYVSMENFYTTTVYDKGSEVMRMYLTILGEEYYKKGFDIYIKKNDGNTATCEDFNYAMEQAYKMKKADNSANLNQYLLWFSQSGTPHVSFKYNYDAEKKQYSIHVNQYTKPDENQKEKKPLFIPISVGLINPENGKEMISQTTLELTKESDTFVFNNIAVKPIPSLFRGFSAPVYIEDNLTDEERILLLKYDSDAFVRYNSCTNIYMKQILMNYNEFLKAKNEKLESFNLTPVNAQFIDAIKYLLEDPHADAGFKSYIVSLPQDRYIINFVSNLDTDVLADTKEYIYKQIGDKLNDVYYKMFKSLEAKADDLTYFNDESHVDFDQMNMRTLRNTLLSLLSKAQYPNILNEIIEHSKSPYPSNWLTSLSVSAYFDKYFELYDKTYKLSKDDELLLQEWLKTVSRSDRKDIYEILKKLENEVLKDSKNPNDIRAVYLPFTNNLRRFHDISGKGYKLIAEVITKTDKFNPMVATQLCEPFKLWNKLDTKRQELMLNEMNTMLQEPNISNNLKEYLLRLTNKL

Streptococcus = test: Group A Streptococcus viability loss, dose response, counter-screen for streptokinase expression inhibitor project, luminescence, BacTiterGlo (AID 1915); type: functional, organism-based;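 also: potency for reduction of bacterial viability or growth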
Streptokinase A = biological target: T2, Streptokinase A (Streptococcus pyogenes serotype M1, UniProt P10520); test: S. pyogenes streptokinase expression inhibitors, potency, dose response, plasminogen activation absorbance, OD405 (AID 1914); type: functional, Streptococcus pyogenes M1 GAS;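 also: secreted streptokinase activity via plasminogen activation per viability signal from cell pellet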
T2 sequence (P10520 whole entry): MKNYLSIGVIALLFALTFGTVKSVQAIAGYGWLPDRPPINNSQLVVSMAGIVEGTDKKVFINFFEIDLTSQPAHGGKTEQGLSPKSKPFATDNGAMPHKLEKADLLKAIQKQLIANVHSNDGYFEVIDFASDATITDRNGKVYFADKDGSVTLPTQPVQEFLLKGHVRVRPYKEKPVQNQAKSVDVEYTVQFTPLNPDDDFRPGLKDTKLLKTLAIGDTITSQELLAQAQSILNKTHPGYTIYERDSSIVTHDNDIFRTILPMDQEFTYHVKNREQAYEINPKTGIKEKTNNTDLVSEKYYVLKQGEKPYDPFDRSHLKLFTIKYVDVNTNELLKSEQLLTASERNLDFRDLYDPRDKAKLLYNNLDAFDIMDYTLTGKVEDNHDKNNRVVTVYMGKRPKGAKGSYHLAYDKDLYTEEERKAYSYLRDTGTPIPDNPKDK

[7] = system: Streptococcus sp. 'group A'; test: growth inhibition of control SK(-) GAS strain, dose response, counter-screen for streptokinase expression inhibitor project, luminescence, kanamycin, BacTiterGlo, confirmation (AID 1900); type: functional, organism-based
[8] = cytotoxicity toward NIH3T3 fibroblasts, dose response, counter-screen, cell-based, ATP luminescence, mouse fibroblasts (AID 2010); type: functional;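 also: cells exposed to compound for about 90 hours before reading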
[9] = inhibitors of intracellular T. cruzi replication, confirmation, NIH3T3 host cells, beta-gal luminescence (AID 2044); type: functional, cell-based;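 also: intracellular parasites grown in NIH/3T3 mouse fibroblasts as host cells; luminescent beta-galactosidase reporter signal from transgenic T. cruzi replicating inside host cells; inhibitors lower the luminescence signal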
cells [10] = type: functional, cell-based
cells [11] = type: functional, cell-based; remark: listed apart in the source
INS1 = test: beta cell apoptosis inhibitors, cytokine rescue, dose response, luminescence, retest (AID 449756); type: functional, cell-based; conditions: Rattus norvegicus;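 also: cell death triggered by IL-1 beta plus TNF-alpha plus IFN-gamma mixture; protective hits raise ATP signal compared with cytokine alone wells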
[12] = MC4R antagonists, dose response, counter-screen for LGR2 antagonist project, cell-based, plate reader, cherry pick (AID 743444); type: functional;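 also: transfected HEK 293 cells stimulated with alpha-MSH peptide; potency of inhibitors of the alpha-MSH evoked signal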
Genome polyprotein = Genome polyprotein (dengue virus type 2, UniProt P29990); test: Dengue-2 NS5 methyltransferase inhibitors, primary screen, biochemical, confirmation dose response (AID 588689); type: functional
Genome polyprotein, sequence (P29990 2492-3391 limits assumed): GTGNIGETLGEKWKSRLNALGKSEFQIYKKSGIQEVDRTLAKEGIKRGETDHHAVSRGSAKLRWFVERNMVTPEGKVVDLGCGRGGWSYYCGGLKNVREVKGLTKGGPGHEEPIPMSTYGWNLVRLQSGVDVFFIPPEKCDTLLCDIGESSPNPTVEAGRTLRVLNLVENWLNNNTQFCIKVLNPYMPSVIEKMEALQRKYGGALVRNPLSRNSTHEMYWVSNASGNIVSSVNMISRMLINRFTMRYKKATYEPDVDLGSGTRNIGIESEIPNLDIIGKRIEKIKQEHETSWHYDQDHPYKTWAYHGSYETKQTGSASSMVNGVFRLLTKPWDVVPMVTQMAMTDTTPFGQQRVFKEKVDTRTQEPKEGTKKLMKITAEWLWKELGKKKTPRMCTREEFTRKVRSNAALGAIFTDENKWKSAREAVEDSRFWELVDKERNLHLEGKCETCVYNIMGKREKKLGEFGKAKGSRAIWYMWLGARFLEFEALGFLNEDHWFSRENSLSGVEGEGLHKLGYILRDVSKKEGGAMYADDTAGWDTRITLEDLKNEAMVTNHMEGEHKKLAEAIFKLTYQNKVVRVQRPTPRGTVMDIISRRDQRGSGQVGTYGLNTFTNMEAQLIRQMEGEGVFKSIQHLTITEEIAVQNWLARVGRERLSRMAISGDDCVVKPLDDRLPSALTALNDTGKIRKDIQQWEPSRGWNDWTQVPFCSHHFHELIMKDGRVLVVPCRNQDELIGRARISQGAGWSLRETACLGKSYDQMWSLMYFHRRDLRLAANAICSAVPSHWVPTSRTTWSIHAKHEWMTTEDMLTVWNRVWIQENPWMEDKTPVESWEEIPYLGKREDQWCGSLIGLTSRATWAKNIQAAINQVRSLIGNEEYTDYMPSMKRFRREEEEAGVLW

Protein RecA = biological target: T3, Protein RecA (Mycobacterium tuberculosis, UniProt P9WHJ3); test: Fluorescence Cell-Free Homogeneous Dose Retest to Identify Inhibitors of RecA-Intein Splicing Activity. [Related pubchem assays (depositor defined):AID2097, AID2223, AID489010, AID492950]; type: functional
T3 sequence (P9WHJ3 whole entry): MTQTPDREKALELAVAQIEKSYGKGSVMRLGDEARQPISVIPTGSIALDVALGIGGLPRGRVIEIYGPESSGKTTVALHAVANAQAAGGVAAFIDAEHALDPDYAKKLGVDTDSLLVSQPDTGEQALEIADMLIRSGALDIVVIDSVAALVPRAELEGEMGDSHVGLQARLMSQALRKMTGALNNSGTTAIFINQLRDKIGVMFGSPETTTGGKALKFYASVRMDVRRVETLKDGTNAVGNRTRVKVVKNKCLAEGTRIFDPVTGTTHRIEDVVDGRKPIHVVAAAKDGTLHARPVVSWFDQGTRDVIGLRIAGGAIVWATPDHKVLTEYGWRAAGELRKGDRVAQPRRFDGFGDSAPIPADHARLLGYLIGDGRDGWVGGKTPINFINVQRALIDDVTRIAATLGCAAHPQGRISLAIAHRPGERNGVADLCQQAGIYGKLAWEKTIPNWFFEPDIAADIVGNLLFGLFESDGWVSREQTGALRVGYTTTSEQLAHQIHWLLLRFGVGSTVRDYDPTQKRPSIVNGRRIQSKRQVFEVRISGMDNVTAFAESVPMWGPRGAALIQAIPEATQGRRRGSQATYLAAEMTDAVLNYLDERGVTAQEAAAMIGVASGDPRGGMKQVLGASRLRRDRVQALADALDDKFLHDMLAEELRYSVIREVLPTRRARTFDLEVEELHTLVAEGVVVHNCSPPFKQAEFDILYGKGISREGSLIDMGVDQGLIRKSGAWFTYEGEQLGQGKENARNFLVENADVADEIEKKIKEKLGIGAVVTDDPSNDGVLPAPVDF

[13] = biological target: T4, Replicative DNA helicase DnaB (Mycobacterium tuberculosis, UniProt P9WMR3); test: DnaB intein splicing inhibitors, dose response, biochemical, cell-free fluorescence (AID 449749); type: functional
T4 sequence (P9WMR3 whole entry): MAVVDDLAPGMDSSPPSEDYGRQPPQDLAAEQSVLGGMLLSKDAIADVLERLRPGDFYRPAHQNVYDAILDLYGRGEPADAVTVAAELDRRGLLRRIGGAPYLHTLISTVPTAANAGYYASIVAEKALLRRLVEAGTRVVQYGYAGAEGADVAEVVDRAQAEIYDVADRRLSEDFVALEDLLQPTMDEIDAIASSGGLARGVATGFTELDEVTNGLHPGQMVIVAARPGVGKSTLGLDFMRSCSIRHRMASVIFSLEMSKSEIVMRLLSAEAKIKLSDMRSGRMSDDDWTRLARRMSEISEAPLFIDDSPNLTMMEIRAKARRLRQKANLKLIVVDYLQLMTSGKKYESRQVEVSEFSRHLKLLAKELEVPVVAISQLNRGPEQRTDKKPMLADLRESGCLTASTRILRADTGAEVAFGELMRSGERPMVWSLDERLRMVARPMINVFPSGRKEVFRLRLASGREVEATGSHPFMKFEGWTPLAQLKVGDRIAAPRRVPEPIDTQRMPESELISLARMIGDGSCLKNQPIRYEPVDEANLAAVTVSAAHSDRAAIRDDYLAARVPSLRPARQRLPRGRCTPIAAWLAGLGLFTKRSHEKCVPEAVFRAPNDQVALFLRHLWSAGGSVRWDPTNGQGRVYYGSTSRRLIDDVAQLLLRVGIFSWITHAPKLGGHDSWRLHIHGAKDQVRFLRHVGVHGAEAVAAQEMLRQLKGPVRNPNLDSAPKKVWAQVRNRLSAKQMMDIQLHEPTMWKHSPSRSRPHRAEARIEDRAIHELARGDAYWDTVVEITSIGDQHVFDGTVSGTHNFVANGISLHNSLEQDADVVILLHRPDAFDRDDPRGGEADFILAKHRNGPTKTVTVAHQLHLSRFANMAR

Row | Compound | IC50 [1] | IC50 (Steroidogenic factor 1) | IC50 [2] | AC50 (HEK293) | also measured
1 | Cc1ccc(NC(=O)CSc2sc3c(O)cc(O)nc3c2C#N)c(F)c1 | 35.9 µM (inactive) | 35.9 µM (inactive) | 35.9 µM (inactive) |  | 
2 | CC[C@]1(C(=O)OC)[C@H]2C(=O)N(Cc3ccccc3)C(=O)[C@H]2[C@H]2CN=C(SCc3ccc(C#N)cc3)N21 |  |  |  | 4.97 µM (active) | AC50 [3]: 1.45 µM (active); AC50 [4]: 0.709 µM (active); AC50 [5]: 1.07 µM (active); AC50 [6]: 5.1 µM (active)
3 | Cc1cccc(CN2C(=O)CSc3ccc(C(=O)NC4CC4)cc32)c1 | 20.1 µM (inactive) | 1.21 µM (active) | 1.89 µM (active) |  | 
4 | Cc1nnc(SCC(=O)N2CCC(c3noc4ccc(F)cc34)CC2)s1 |  |  |  | 9.92 µM (active) | IC50 (Aminopeptidase N): 39.1 µM (active)
5 | Cc1ccc(-c2csc(NC(=O)c3ccc([N+](=O)[O-])o3)n2)cc1 | 35.9 µM (inactive) | 4.48 µM (active) | 35.9 µM (inactive) |  | EC50 (Streptococcus): > 150 µM (not active); EC50 (Streptokinase A): 62.4 µM (active); EC50 [7]: 1.89 µM (active); EC50 [8]: 12.2 µM (active); EC50 [9]: 0.37 µM (active)
6 | Cc1nnc(SCC(=O)Nc2ccc(Br)cc2)n(N)c1=O | 35.9 µM (inactive) | 20.1 µM (inactive) | 35.9 µM (inactive) |  | 
7 | C=CCn1c(=O)/c(=C/c2ccc(Cl)cc2)s/c1=C(\C#N)c1nnc2n1CCCCC2 |  |  |  | 23.9 µM (active) | 
8 | N#Cc1ccc(-c2csc(NNC(=O)c3ccc(Br)cc3)n2)cc1 |  |  |  | 8.39 µM (active) | EC50 (cells [10]): > 350 µM (not active); EC50 (cells [11]): > 350 µM (not active); AC50 (INS1): 7.72 µM (active)
9 | O=C(CN1CCOc2ccccc21)NCc1ccc(F)cc1 |  |  |  |  | AC50 [12]: 29.2 µM (active)
10 | Cc1[nH]n(-c2ccccc2)c(=O)c1C(c1ccccc1[N+](=O)[O-])C(C#N)C#N (stereo not given) |  |  |  |  | IC50 (Genome polyprotein): 86.4 µM (active); EC50 (Protein RecA): 7.28 µM (active); AC50 [13]: 3.3 µM (active)
11 | CCOc1cc(/C=N/n2nnnc2N)ccc1OCc1c(C)no[n+]1[O-] | 35.9 µM (inactive) | 2.22 µM (active) | 11.8 µM (inactive) |  | 
12 | CC(=O)Nc1cc(-c2cccc(F)c2)cn2c(-c3ccc(S(C)(=O)=O)cc3)cnc12 | 31.1 µM (inactive) | 2.36 µM (active) | 5.75 µM (active) |  | 
13 | O=C1/C(=C2\C(=O)N(Cc3ccc(F)cc3)c3ccccc32)SC(=S)N1CCS(=O)(=O)O |  |  |  |  | IC50 (Genome polyprotein): 32.5 µM (active)
